Measured values reported in the supplement of paper PMC10307832.

Experiments:
Test in all cases: relative viability (nuclei count vs DMSO), 5 days (fraction); higher = more cells survive
[1] = compound: CN[C@@H]1C[C@H]2O[C@@](C)([C@@H]1OC)n1c3ccccc3c3c4c(c5c6ccccc6n2c5c31)C(=O)NC4 [Staurosporine] + CS(=O)(=O)N1CCN(Cc2cc3nc(-c4cccc5[nH]ncc45)nc(N4CCOCC4)c3s2)CC1 [Pictilisib] (partner 1 µM)
Summary of the method: (§1)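 The day after seeding in 1536-well plates, lung cancer cell lines were treated by pin tool with a single drug, or with a fixed anchor-drug dose together with five library-drug doses (not always all listed) in √10 steps. After 5 days, a combined fix-and-stain solution (final 0.05% Triton X-100, 1% formaldehyde, 1 ug/ml Hoechst) was added. Nuclei counted on 4× images gave relative viability as treated counts over vehicle counts, reported as the median of duplicate plates.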

[2] = compound: O=c1[nH]cc(F)c(=O)[nH]1 [5-Fluorouracil] + CC(=O)Nc1cccc(-n2c(=O)n(C3CC3)c(=O)c3c(Nc4ccc(I)cc4F)n(C)c(=O)c(C)c32)c1 [Trametinib] (partner 0.02 µM)
Summary of the method: as §1

[3] = compound: CC1=C(CC(=O)O)c2cc(F)ccc2/C1=C\c1ccc([S+](C)[O-])cc1 [Sulindac] + O=C(c1cc(Cc2n[nH]c(=O)c3ccccc23)ccc1F)N1CCN(C(=O)C2CC2)CC1 [Olaparib] (partner 8 µM)
Summary of the method: as §1

[4] = compound: CN[C@@H]1C[C@H]2O[C@@](C)([C@@H]1OC)n1c3ccccc3c3c4c(c5c6ccccc6n2c5c31)C(=O)NC4 [Staurosporine] + Nc1nc2[nH]cc(CCc3ccc(C(=O)N[C@@H](CCC(=O)O)C(=O)O)cc3)c2c(=O)[nH]1 [Pemetrexed] (partner 0.2 µM)
Summary of the method: as §1

Cell Line	relative viability ([1]; first compound 0.005 µM)	relative viability ([1]; first compound 0.01581 µM)	relative viability ([1]; first compound 0.05 µM)	relative viability ([1]; first compound 0.1581 µM)	relative viability ([1]; first compound 0.5 µM)	relative viability ([2]; first compound 0.02 µM)	relative viability ([2]; first compound 0.2 µM)	relative viability ([2]; first compound 0.6325 µM)	relative viability ([2]; first compound 2 µM)	relative viability ([3]; first compound 0.08 µM)	relative viability ([3]; first compound 0.253 µM)	relative viability ([3]; first compound 0.8 µM)	relative viability ([3]; first compound 2.53 µM)	relative viability ([3]; first compound 8 µM)	relative viability ([4]; first compound 0.005 µM)	relative viability ([4]; first compound 0.01581 µM)	relative viability ([4]; first compound 0.05 µM)	relative viability ([4]; first compound 0.1581 µM)	relative viability ([4]; first compound 0.5 µM)
NCI-H1355	0.277	0.157	0.215	0.153	0.152	0.443	0.387	0.265	0.242	0.704	0.691	0.679	0.66	0.759	0.999	0.609	0.449	0.27	0.2
EKVX	0.403	0.218	0.184	0.163	0.121	0.326		0.187	0.148	0.736	0.929	0.718	0.803	0.93	0.197	0.139	0.189	0.255	0.141
NCI-H520	0.484	0.206	0.39	0.178	0.159	0.624	0.666	0.439	0.311	0.36	0.328	0.302	0.313	0.283	0.579	0.394	0.295	0.181	0.148
NCI-H1993	0.869	0.646	0.66	0.526	0.565	0.379	0.524	0.486	0.487	1.03	1.11	0.895	1.05	1.13	0.631	0.428	0.539	0.332	0.267
HCC-78	0.212	0.175	0.178	0.223	0.206	1.01	0.717	0.435	0.297	0.972	0.812	0.763	0.784	0.686	0.978	0.893	0.882	0.927	0.881
NCI-H2087	0.833	0.435	0.313	0.165	0.138	0.216	0.157	0.167	0.216	0.606	0.722	0.54	0.468	0.571	0.548	0.531	0.429	0.171	0.117
H3255	0.325	0.238	0.145	0.135	0.0752	0.664	0.716	0.687	0.567	0.573	0.531	0.501	0.557	0.553	0.481	0.392	0.305	0.213	0.135
NCI-H2126	0.496	0.309	0.342	0.278	0.286	0.579	0.305	0.27	0.257	1.12	0.923	0.87	0.951	1	0.64	0.262	0.4	0.279	0.211
LC-2-ad	0.591	0.159	0.143	0.0807	0.0527	1.02	0.894	0.552	0.349	0.746	0.677	0.676	0.686	0.66	0.277	0.21	0.209	0.102	0.0993
SK-LU-1	0.412	0.187	0.145	0.137	0.124	0.458	0.598	0.435	0.464	0.498	0.525	0.446	0.407	0.536	0.416	0.182	0.167	0.163	0.176
EBC-1	0.167	0.112	0.126	0.154	0.139					0.846	0.643	0.545	0.748	0.816					
HCC-15	0.718		0.566	0.216	0.113	0.321	0.365	0.34	0.284	0.747	0.763	0.68	0.702	0.765	0.217	0.188	0.189	0.157	0.134
NCI-H1563	0.749	0.594	0.577	0.498	0.433										0.543	0.39	0.522	0.45	0.41
COR-L 105	0.303	0.223	0.242	0.26	0.556	0.458	0.505	0.408	0.393	0.645	0.61	0.692	0.717	0.72	0.655	0.554	0.52	0.428	0.293
NCI-H647	0.292	0.125	0.148	0.118	0.0831	0.444	0.479	0.406	0.393	0.689	0.577	0.346	0.398	0.785	0.118	0.0997	0.104	0.0736	0.0566
